In US8889919B2, “Cyclic compound, process for production of the cyclic compound, radiation-sensitive composition, and method for formation of resist pattern” (Mitsubishi Gas Chemical Company, Inc., priority 2009, dated 2014):

Assay: Solubility of compound in safety solvent
Assay type: physicochemical
Settings: for Solubility in CHN: solvent cyclohexanone (CHN); for Solubility in PGME: solvent propylene glycol monomethyl ether (PGME)
Description: (1) Solubility of Compound in Safety Solvent
The compounds obtained in Synthesis Examples 1 to 6 and Synthesis 1 to 4 were evaluated for the solubility in propylene glycol monomethyl ether (PGME) and cyclohexanone (CHN).
B: 1.0 wt %≦dissolved amount<4.0 wt %
C: dissolved amount<1.0 wt %

## CC(C)c1ccc(C2c3cc(c(O)cc3O)C(c3ccc(C(C)C)cc3)c3cc(c(O)cc3O)C(c3ccc(C(C)C)cc3)c3cc(c(O)cc3O)C(c3ccc(C(C)C)cc3)c3cc2c(O)cc3O)cc1 (centres unmarked) [CR-1A]
  Solubility in CHN: A (4.0 wt %≦amount)
  Solubility in PGME: B (1.0 wt %≦dissolved amount<4.0 wt %)

## CC(C)Cc1ccc(C2c3cc(c(O)cc3O)C(c3ccc(CC(C)C)cc3)c3cc(c(O)cc3O)C(c3ccc(CC(C)C)cc3)c3cc(c(O)cc3O)C(c3ccc(CC(C)C)cc3)c3cc2c(O)cc3O)cc1 (centres unmarked) [CR-2A]
  Solubility in CHN: B (1.0 wt %≦dissolved amount<4.0 wt %)
  Solubility in PGME: C (dissolved amount<1.0 wt %)

## Oc1cc(O)c2cc1C(c1ccc(-c3ccccc3)cc1)c1cc(c(O)cc1O)C(c1ccc(-c3ccccc3)cc1)c1cc(c(O)cc1O)C(c1ccc(-c3ccccc3)cc1)c1cc(c(O)cc1O)C2c1ccc(-c2ccccc2)cc1 (centres unmarked) [CR-3A]
  Solubility in CHN: A (4.0 wt %≦amount)
  Solubility in PGME: C (dissolved amount<1.0 wt %)

## Oc1cc(O)c2cc1C(c1ccc(C3CCCCC3)cc1)c1cc(c(O)cc1O)C(c1ccc(C3CCCCC3)cc1)c1cc(c(O)cc1O)C(c1ccc(C3CCCCC3)cc1)c1cc(c(O)cc1O)C2c1ccc(C2CCCCC2)cc1 (centres unmarked) [CR-4A]
  Solubility in CHN: A (4.0 wt %≦amount)
  Solubility in PGME: B (1.0 wt %≦dissolved amount<4.0 wt %)
